Results on 18 molecules are retold here after patent US20260028354A1, “TETRAHYDRONAPHTHALENE DERIVATIVES AS ESTROGEN RECEPTOR DEGRADERS” (REGENT OF THE UNIVERSITY OF MICHIGAN, priority 2022, published 2026).

Usually DC50 stands for the concentration giving 50% degradation.

This experiment in a line: Western blot analysis for "B" compounds. Conditions: read-out: Traditional Western Degradation Potency (DC50). In kind it is cell-based. Summed up:
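Target protein levels given as relative mean band intensity over GAPDH from scanned immunoblots. Lysates of treated cells in RIPA buffer, equalized by BCA, separated on 10% gels and transferred to PVDF.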
`O=C1CCC(N2C(=O)c3cc4c(cc3C2=O)CN(CC(=O)N2CCCC(Oc3ccc([C@@H]5c6ccc(O)cc6CC[C@@H]5c5ccccc5)cc3)C2)C4)C(=O)N1` (mixture of isomers) [Compound B13, 2-(2,6-dioxopiperidin-3-yl)-6-(2-(3-(4-((1R,2S)-6-hydroxy-2-phenyl-1,2,3,4-tetrahydronaphthalen-1-yl)phenoxy)piperidin-1-yl)-2-oxoethyl)-6,7-dihydropyrrolo[3,4-f]isoindole-1,3(2H,5H)-dione]: the DC50 was greater than 100 nM.
The result for `O=C1CCC(N2C(=O)c3cc4c(cc3C2=O)CN(CC(=O)N2CCC3(CC2)CCN(c2ccc([C@H]5c6ccc(O)cc6CC[C@H]5c5ccccc5)nc2)CC3)C4)C(=O)N1` (mixture of isomers) [Compound B86, 2-(2,6-dioxopiperidin-3-yl)-6-(2-(9-(6-((1R,2R)-6-hydroxy-2-phenyl-1,2,3,4-tetrahydronaphthalen-1-yl)pyridin-3-yl)-3,9-diazaspiro[5.5]undecan-3-yl)-2-oxoethyl)-6,7-dihydropyrrolo[3,4-f]isoindole-1,3(2H,5H)-dione] reads greater than 100 nM.
`O=C1CCC(N2C(=O)c3cc4c(cc3C2=O)CN(C2CCN(CC3CCN(c5ccc([C@@H]6c7ccc(O)cc7CC[C@@H]6c6ccc(F)cc6)cc5)CC3)CC2)C4)C(=O)N1` (stereo partly drawn) [Compound B66, 2-(2,6-dioxopiperidin-3-yl)-6-(1-((1-(4-((1R,2S)-2-(4-fluorophenyl)-6-hydroxy-1,2,3,4-tetrahydronaphthalen-1-yl)phenyl)piperidin-4-yl)methyl)piperidin-4-yl)-6,7-dihydropyrrolo[3,4-f]isoindole-1,3(2H,5H)-dione]: the 50% degradation concentration (DC50) lay within 10 to 100 nM.
The result for `O=C1CCC(N2C(=O)c3cc4c(cc3C2=O)CN(CC2CCN(C(=O)C3CCN(c5ccc([C@@H]6c7ccc(O)cc7CC[C@@H]6c6ccccc6)cc5)CC3)CC2)C4)C(=O)N1` (mixture of isomers) [Compound B8, 2-(2,6-dioxopiperidin-3-yl)-6-((1-(1-(4-((1R,2S)-6-hydroxy-2-phenyl-1,2,3,4-tetrahydronaphthalen-1-yl)phenyl)piperidine-4-carbonyl)piperidin-4-yl)methyl)-6,7-dihydropyrrolo[3,4-f]isoindole-1,3(2H,5H)-dione] reads 10 to 100 nM; that for “3-(6-((1R,4r)-4-(3-((4-((1R,2S)-6-hydroxy-2-phenyl-1,2,3,4- tetrahydronaphthalen-1-yl)phenyl)amino)azetidin-1- yl)cyclohexane-1-carbonyl)-1-oxo-3,5,6,7- tetrahydropyrrolo[3,4-f]isoindol-2(1H)-yl)pipcridinc-2,6-dionc [Compound B109]”, less than 10 nM.
The result for `O=C1CCC(N2C(=O)c3cc4c(cc3C2=O)CN(C2CCN(C(=O)[C@H]3C[C@H](Oc5ccc([C@@H]6c7ccc(O)cc7CC[C@@H]6c6ccccc6)cc5)C3)CC2)C4)C(=O)N1` (stereo partly drawn) [Compound B285, 2-(2,6-dioxopiperidin-3-yl)-6-(1-((1R,3r)-3-(4-((1R,2S)-6-hydroxy-2-phenyl-1,2,3,4-tetrahydronaphthalen-1-yl)phenoxy)cyclobutane-1-carbonyl)piperidin-4-yl)-6,7-dihydropyrrolo[3,4-f]isoindole-1,3(2H,5H)-dione] reads 10 to 100 nM.
The result for `O=C1CCC(N2C(=O)c3cc4c(cc3C2=O)CN(C2CCC3(CC2)CCN(c2ccc([C@@H]5c6ccc(O)cc6CC[C@@H]5c5ccccc5)cc2)CC3)C4)C(=O)N1` (stereo partly drawn) [Compound B189, 2-(2,6-dioxopiperidin-3-yl)-6-(3-(4-((1R,2S)-6-hydroxy-2-phenyl-1,2,3,4-tetrahydronaphthalen-1-yl)phenyl)-3-azaspiro[5.5]undecan-9-yl)-6,7-dihydropyrrolo[3,4-f]isoindole-1,3(2H,5H)-dione] reads greater than 100 nM; that for `O=C1CCC(N2C(=O)c3cc4c(cc3C2=O)CN(CC(=O)N2CCC3(CC2)CCN(c2ccc([C@@H]5c6ccc(O)cc6CC[C@@H]5c5ccc(F)cc5)cc2)CC3)C4)C(=O)N1` (stereo partly drawn) [Compound B272, 2-(2,6-dioxopiperidin-3-yl)-6-(2-(9-(4-((1R,2S)-2-(4-fluorophenyl)-6-hydroxy-1,2,3,4-tetrahydronaphthalen-1-yl)phenyl)-3,9-diazaspiro[5.5]undecan-3-yl)-2-oxoethyl)-6,7-dihydropyrrolo[3,4-f]isoindole-1,3(2H,5H)-dione], 10 to 100 nM.
For “3-(6-((1S,4s)-4-(3-((4-((1R,2S)-6-hydroxy-2-phenyl-1,2,3,4- tetrahydronaphthalen-1-yl)phenyl)amino)azetidin-1- yl)cyclohexane-1-carbonyl)-1-oxo-3,5,6,7- tetrahydropyrrolo[3,4-f]isoindol-2(1H)-yl)piperidine-2,6-dione [Compound B116]”, the DC50 was greater than 100 nM.
The result for `O=C1CCC(N2C(=O)c3cc4c(cc3C2=O)CN(CC(=O)N2CCC3(CC2)CCN(c2ccc([C@@H]5c6ccc(O)cc6CC[C@@H]5c5ccc(F)cc5)cc2)C3)C4)C(=O)N1` (stereo partly drawn) [Compound B55, 2-(2,6-dioxopiperidin-3-yl)-6-(2-(2-(4-((1R,2S)-2-(4-fluorophenyl)-6-hydroxy-1,2,3,4-tetrahydronaphthalen-1-yl)phenyl)-2,8-diazaspiro[4.5]decan-8-yl)-2-oxoethyl)-6,7-dihydropyrrolo[3,4-f]isoindole-1,3(2H,5H)-dione] reads 10 to 100 nM; that for `O=C1CCC(N2C(=O)c3cc4c(cc3C2=O)CN(CC(=O)N2CCC3(CC2)CCN(c2ccc([C@@H]5c6ccc(-c7cn[nH]c7)cc6CC[C@@H]5c5ccccc5)cc2)CC3)C4)C(=O)N1` (stereo partly drawn) [Compound B324, 2-(2,6-dioxopiperidin-3-yl)-6-(2-oxo-2-(9-(4-((1R,2S)-2-phenyl-6-(1H-pyrazol-4-yl)-1,2,3,4-tetrahydronaphthalen-1-yl)phenyl)-3,9-diazaspiro[5.5]undecan-3-yl)ethyl)-6,7-dihydropyrrolo[3,4-f]isoindole-1,3(2H,5H)-dione], greater than 100 nM.
For `O=C1CCC(N2C(=O)c3cc4c(cc3C2=O)CN(C(=O)CN2CCC3(CC2)CN(c2ccc([C@@H]5c6ccc(O)cc6CC[C@@H]5c5ccccc5)cc2)C3)C4)C(=O)N1` (mixture of isomers) [Compound B29, 2-(2,6-dioxopiperidin-3-yl)-6-(2-(2-(4-((1R,2S)-6-hydroxy-2-phenyl-1,2,3,4-tetrahydronaphthalen-1-yl)phenyl)-2,7-diazaspiro[3.5]nonan-7-yl)acetyl)-6,7-dihydropyrrolo[3,4-f]isoindole-1,3(2H,5H)-dione] the value was greater than 100 nM.
The result for `O=C1CCC(N2C(=O)c3cc4c(cc3C2=O)CN(C(=O)CN2CCC3(CC2)CCN(c2ccc([C@@H]5c6ccc(O)cc6CC[C@@H]5c5ccc(F)cc5)cc2)C3)C4)C(=O)N1` (mixture of isomers) [Compound B31, 2-(2,6-dioxopiperidin-3-yl)-6-(2-(2-(4-((1R,2S)-2-(4-fluorophenyl)-6-hydroxy-1,2,3,4-tetrahydronaphthalen-1-yl)phenyl)-2,8-diazaspiro[4.5]decan-8-yl)acetyl)-6,7-dihydropyrrolo[3,4-f]isoindole-1,3(2H,5H)-dione] reads greater than 100 nM; that for `O=C1CCC(N2C(=O)c3cc4c(cc3C2=O)CN(CC(=O)N2CC(n3cc(-c5ccc([C@@H]6c7ccc(O)cc7CC[C@@H]6c6ccccc6)cc5)cn3)C2)C4)C(=O)N1` (stereo partly drawn) [Compound B59, 2-(2,6-dioxopiperidin-3-yl)-6-(2-(3-(4-(4-((1R,2S)-6-hydroxy-2-phenyl-1,2,3,4-tetrahydronaphthalen-1-yl)phenyl)-1H-pyrazol-1-yl)azetidin-1-yl)-2-oxoethyl)-6,7-dihydropyrrolo[3,4-f]isoindole-1,3(2H,5H)-dione], greater than 100 nM.
Turning to `O=C1CCC(N2C(=O)c3cc4c(cc3C2=O)CN(C2CCC(CN3CCN(c5ccc([C@@H]6c7ccc(O)cc7CC[C@@H]6c6ccccc6)cc5)CC3)CC2)C4)C(=O)N1` (stereo partly drawn) [Compound B76, 2-(2,6-dioxopiperidin-3-yl)-6-(4-((4-(4-((1R,2S)-6-hydroxy-2-phenyl-1,2,3,4-tetrahydronaphthalen-1-yl)phenyl)piperazin-1-yl)methyl)cyclohexyl)-6,7-dihydropyrrolo[3,4-f]isoindole-1,3(2H,5H)-dione], the half-maximal degradation concentration (DC50) lay in the range of 10 to 100 nM.
For `O=C1CCC(N2C(=O)c3cc4c(cc3C2=O)CN(CC2CN(CC3CN(c5ccc([C@@H]6c7ccc(O)cc7CC[C@@H]6c6ccc(F)cc6)cc5)C3)C2)C4)C(=O)N1` (stereo partly drawn) [Compound B71, 2-(2,6-dioxopiperidin-3-yl)-6-((1-((1-(4-((1R,2S)-2-(4-fluorophenyl)-6-hydroxy-1,2,3,4-tetrahydronaphthalen-1-yl)phenyl)azetidin-3-yl)methyl)azetidin-3-yl)methyl)-6,7-dihydropyrrolo[3,4-f]isoindole-1,3(2H,5H)-dione] the value was greater than 100 nM.
In the case of `O=C1CCC(N2C(=O)c3cc4c(cc3C2=O)CN(C(=O)C2CCN(C3CCN(c5ccc([C@@H]6c7ccc(O)cc7CC[C@@H]6c6ccc(F)cc6)cc5)CC3)CC2)C4)C(=O)N1` (mixture of isomers) [Compound B6, 2-(2,6-dioxopiperidin-3-yl)-6-(1′-(4-((1R,2S)-2-(4-fluorophenyl)-6-hydroxy-1,2,3,4-tetrahydronaphthalen-1-yl)phenyl)-[1,4'-bipiperidine]-4-carbonyl)-6,7-dihydropyrrolo[3,4-f]isoindole-1,3(2H,5H)-dione], the DC50 was less than 10 nM.
For `O=C1CCC(N2C(=O)c3cc4c(cc3C2=O)CN(CC(=O)N2CCC3(CC2)CCN(c2cnc([C@H]5c6ccc(O)cc6CC[C@H]5c5ccccc5)cn2)CC3)C4)C(=O)N1` (mixture of isomers) [Compound B85, 2-(2,6-dioxopiperidin-3-yl)-6-(2-(9-(5-((1R,2R)-6-hydroxy-2-phenyl-1,2,3,4-tetrahydronaphthalen-1-yl)pyrazin-2-yl)-3,9-diazaspiro[5.5]undecan-3-yl)-2-oxoethyl)-6,7-dihydropyrrolo[3,4-f]isoindole-1,3(2H,5H)-dione] the value was greater than 100 nM.
